Laboratory results reported in paper PMC6201879, “N-substituted phenylbenzamides of the niclosamide chemotype attenuate obesity related changes in high fat diet fed mice” (PLoS ONE, 2018).
Like-named read-outs stand apart in the source and are kept apart here.

Experiments:
[1] = test system: HEK293 cells stably transduced with the human OCT3 transporter; experiment: Cellular oxygen consumption rate (OCR), MitoXpress Xtra; type: cell-based; details: HEK293 cells expressing human OCT3; compared to DMSO control; 2 hours
Summary of the method: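 HEK293 cells stably expressing human OCT3, treated with four compound concentrations; oxygen consumption followed by MitoXpress Xtra TR-F lifetime (340/650 nm) every 2 min for 2 h. Lifetime slope from the linear portion taken as OCR; FCCP (1 μM) as stimulated control, differences versus DMSO by t-test.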

[2] = Metabolic stability in mouse liver microsomes; type: in vitro ADME; details: 60 min
Description: Three experiments were performed with 1) 0.5mg/ml microsomes and 1mM NADPH, 2) 0.5mg/ml microsomes without NADPH and 3) 0.5mg/ml heat inactivated microsomes without NADPH in 100mM phosphate buffer, containing 5mM magnesium chloride. […] At the indicated time points, 50μl samples were removed and stopped by addition of 4 volumes of cold acetonitrile with internal standards, 100nM alprazolam, 200nM labetalol and 2μM ketoprofen. The samples were centrifuged at 3,220 g for 40 minutes and aliquots of 100μl were subsequently diluted with 100μl of ultra-pure water and analyzed by LC/MS/MS using a (Shimadzu corporation) LC system coupled to a Shimadzu Triple Quad 5500 mass spectrometer with an ESI interface. The LC system used a Waters XSelect HSS T3 C18, 2.5μm, 2.1 x 50 mm column eluted with one of two methods using mobile phases A (water, 0.1% formic acid) and B (acetonitrile, 0.1% formic acid). […] The Shimadzu Triple Quad 5500 MS was operated with the following parameters: Ion source: Turbo spray; Ionization mode: ESI; Scan type: MRM; Collision gas: 10 L/min; Curtain gas: 30 L/min; Nebulize gas: 50 L/min; Auxiliary gas: 50 L/min; Temperature: 500°C; Ionspray voltage: +5500 V (positive MRM). All experiments were performed in duplicate. Data were analyzed using Microsoft excel, and peak areas were determined from extracted ion chromatograms.

[3] = Pharmacokinetic profile in Sprague Dawley rats (IV and PO); type: in vivo; details: Mean + SD (n = 3)
Description: To evaluate the pharmacokinetic profile by oral (PO) and intravenous (IV) administration routes we used 6 to 8-week old Sprague Dawley rats weighing approximately 200-330g (n = 3 per study group). Compounds were administered at 1mg/kg in 5% Cremophor EL and 20% PEG400 in water for IV and 5mg/kg in PBS for PO. All dose formulation was performed at room temperature. Animals were fasted overnight prior to dosing and were re-fed approximately 4 hours after dosing. For PO, 0.2ml of blood was collected pre- and 0.5, 1, 2, 4 8 12 and 24-hours after drug delivery and transferred to EDTA-K2 BD Vacutainer plastic blood collection tubes. IV samples were collected pre-injection and 0.08, 0.25, 0.5, 1, 2, 4, 8, 12, 24-hours post injection. Blood samples were centrifuged at 2,000 g for 5 minutes at 4°C to obtain plasma. Plasma samples were stored at -75±15°C prior to analysis and then thawed and analyzed by LC-MS/MS method and pharmacokinetic calculations were performed using WinNolin (Phoenix, version 6.4). For IV administration: T1/2, C0, AUClast, AUCinf, MRT, Cl, Vss, and number of points for regression were determined. For PO administration: T1/2, Cmax, Tmax, AUCinf, AUClast, F(0-∞) %, and number of points for regression were determined. Data are reported as mean and standard deviation.

[4] = test system: Salmonella typhimurium TA100; details: for Mean Revertant Colony Counts TA-100 SP9+: with S9; for Mean Revertant Colony Counts TA-100 S9-: without S9
[5] = test system: Salmonella typhimurium TA98; experiment: Ames assay, strain TA98; details: for Mean Revertant Colony Counts TA98 SP9+: with S9; for Mean Revertant Colony Counts TA98 S9-: without S9
[6] = any concentration tested, vs negative control

## CC(C)(C)c1ccc(O)c(C(=O)Nc2ccc(C(=O)O)cc2Cl)c1 [Compound 500200, 4-[(5-tert-butyl-2-hydroxybenzene)amido]-3-chlorobenzoic acid]
[1]
  change in respiration / oxygen consumption rate (OCR): no change in respiration
[2]; 0.5mg/ml microsomes and 1mM NADPH
  Remaining Percentage of 60 min (%), Mouse, Tested Sample: 101.2%
[2]; 0.5mg/ml microsomes without NADPH
  Remaining Percentage of 60 min (%), Mouse, Negative Control: 111.5%
[2]; heat inactivated microsomes without NADPH
  Remaining Percentage of 60 min (%), Mouse, Heat-inactivated Control: 102.7%
[3]; IV 1 mg/kg
  AUC _%Extrap_obs (IV): 0.13 +/- 0.016%
  AUCl ast/D (IV): 1940 ± 166 ng·kg·h/mL/mg
  V ss_obs: 0.13 ± 0.020 L/kg
[3]; PO 5 mg/kg in PBS
  AUC _%Extrap_obs (PO): 1.94 +/- 1.27%
  AUC last / D (PO): 43.3 ± 25.3 ng·kg·h/mL/mg
[3]; Sprague Dawley, rat, plasma, iv, 1 mg/kg, IV 1 mg/kg, read-out: T 1/2 (IV) (converted)
  half-life: 1.66 ± 0.48 h
[3]; Sprague Dawley, rat, plasma, po, 5 mg/kg, PO 5 mg/kg in PBS
  Cmax: 50.8 ± 35.7 ng/mL
[3]; Sprague Dawley, rat, plasma, po, 5 mg/kg, PO 5 mg/kg in PBS, read-out: T 1/2 (PO) (converted)
  half-life: 1.51 ± 0.4 h
[3]; Sprague Dawley, rat, plasma, po, 5 mg/kg, PO 5 mg/kg vs IV 1 mg/kg, read-out: F (oral bioavailability)
  bioavailability: 2.26 ± 1.29%
[3]; rat, plasma, IV 1 mg/kg
  C0: 13800 ± 2610 ng/mL
[3]; rat, plasma, IV 1 mg/kg, read-out: AUC Inf (IV)
  AUC(0-inf): 1940 ± 166 ng·h/mL
[3]; rat, plasma, IV 1 mg/kg, read-out: AUC last (IV)
  AUC(0-t): 1940 ± 166 ng·h/mL
[3]; rat, plasma, IV 1 mg/kg, read-out: Cl_obs
  clearance: 8.63 ± 0.78 mL/min/kg
[3]; rat, plasma, IV 1 mg/kg, read-out: MRT Inf_obs (IV)
  MRT inf: 0.26 ± 0.048 h
[3]; rat, plasma, PO 5 mg/kg in PBS
  Tmax: 3.33 ± 1.15 h
[3]; rat, plasma, PO 5 mg/kg in PBS, read-out: AUC Inf (PO)
  AUC(0-inf): 220 ± 1250 ng·h/mL
[3]; rat, plasma, PO 5 mg/kg in PBS, read-out: AUC last (PO)
  AUC(0-t): 216 ± 127 ng·h/mL
[3]; rat, plasma, PO 5 mg/kg in PBS, read-out: MRT Inf_obs (PO)
  MRT inf: 4.04 ± 0.68 h
[4]; 1.5 ug/Well
  Mean Revertant Colony Counts TA-100 SP9+: 18.7
  Mean Revertant Colony Counts TA-100 S9-: 32.3
[4]; 4 ug/Well
  Mean Revertant Colony Counts TA-100 SP9+: 19.7
  Mean Revertant Colony Counts TA-100 S9-: 25.7
[4]; 10 ug/Well
  Mean Revertant Colony Counts TA-100 SP9+: 22.0
  Mean Revertant Colony Counts TA-100 S9-: 26.7
[4]; 25 ug/Well
  Mean Revertant Colony Counts TA-100 SP9+: 22.0
  Mean Revertant Colony Counts TA-100 S9-: 28.0
[4]; 64 ug/Well
  Mean Revertant Colony Counts TA-100 SP9+: 20.3
  Mean Revertant Colony Counts TA-100 S9-: 26.3
[4]; 160 ug/Well
  Mean Revertant Colony Counts TA-100 SP9+: 27.7
  Mean Revertant Colony Counts TA-100 S9-: 24.0
[4]; 400 ug/Well
  Mean Revertant Colony Counts TA-100 SP9+: 18.3
  Mean Revertant Colony Counts TA-100 S9-: 29.7
[4]; 1000 ug/Well
  Mean Revertant Colony Counts TA-100 SP9+: 8.0
  Mean Revertant Colony Counts TA-100 S9-: 16.3
[4]; [6]
  fold increase in the mean number of revertant colonies, TA100: < 2 fold
[5]; 1.5 ug/Well
  Mean Revertant Colony Counts TA98 SP9+: 7.7
  Mean Revertant Colony Counts TA98 S9-: 9.0
[5]; 4 ug/Well
  Mean Revertant Colony Counts TA98 SP9+: 6.3
  Mean Revertant Colony Counts TA98 S9-: 12.0
[5]; 10 ug/Well
  Mean Revertant Colony Counts TA98 SP9+: 9.0
  Mean Revertant Colony Counts TA98 S9-: 8.7
[5]; 25 ug/Well
  Mean Revertant Colony Counts TA98 SP9+: 7.3
  Mean Revertant Colony Counts TA98 S9-: 9.0
[5]; 64 ug/Well
  Mean Revertant Colony Counts TA98 SP9+: 9.0
  Mean Revertant Colony Counts TA98 S9-: 7.7
[5]; 160 ug/Well
  Mean Revertant Colony Counts TA98 SP9+: 11.0
  Mean Revertant Colony Counts TA98 S9-: 5.0
[5]; 400 ug/Well
  Mean Revertant Colony Counts TA98 SP9+: 7.0
  Mean Revertant Colony Counts TA98 S9-: 9.7
[5]; 1000 ug/Well
  Mean Revertant Colony Counts TA98 SP9+: 4.3
  Mean Revertant Colony Counts TA98 S9-: 4.3
[5]; [6]
  fold increase in the mean number of revertant colonies, TA98: < 2 fold
